Measured values taken from ChEMBL document CHEMBL5303764, “Data for DCP probe BI-3812” (2023).
Activity calls are given as the source filed them. The calls are words filed in the database; no cut-off is given here.

How the values were obtained:
[1] = target: Beta-1 adrenergic receptor (Homo sapiens) (UniProt P08588); assay: BETA1/HUM Eurofins SafetyScreen44 (BI); conditions: Compound concentration 10.0 uM
[2] = target: Kappa-type opioid receptor (Homo sapiens) (UniProt P41145); conditions: Compound concentration 10.0 uM
[3] = target: Prostaglandin G/H synthase 1 (Homo sapiens) (UniProt P23219); assay: COX-1 Eurofins SafetyScreen44 (BI); conditions: Compound concentration 10.0 uM
[4] = target: Sigma non-opioid intracellular receptor 1 (Homo sapiens) (UniProt Q99720); conditions: Compound concentration 10.0 uM
[5] = target: AMP-activated protein kinase (AMPK) alpha-1/beta-1/gamma-1 (Homo sapiens) (UniProt P54619+Q9Y478+Q13131); assay: AMPK A1B1G1 Invitrogen Lab (UK) kinase screen (BI); format: protein-complex assay; conditions: Compound concentration 1.0 uM
[6] = target: 5-hydroxytryptamine receptor 2A (Homo sapiens) (UniProt P28223); conditions: Compound concentration 10.0 uM
[7] = target: 5-hydroxytryptamine receptor 2B (Homo sapiens) (UniProt P41595); conditions: Compound concentration 10.0 uM
[8] = target: Interleukin-1 receptor-associated kinase 4 (Homo sapiens) (UniProt Q9NWZ3); assay: IRAK4 Invitrogen Lab (UK) kinase screen (BI); conditions: Compound concentration 1.0 uM
[9] = target: Zinc finger and BTB domain-containing protein 17 (Homo sapiens, UniProt Q13105); assay: SPR (ZBTB17), Ontario institute for cancer research
[10] = target: Ribosomal protein S6 kinase alpha-5 (Homo sapiens) (UniProt O75582); assay: RPS6KA5 Invitrogen Lab (UK) kinase screen (BI); conditions: Compound concentration 1.0 uM
[11] = target: GABA-A receptor; anion channel (Rattus norvegicus) (UniProt O09028+P15431+P18506+P18508+P19969+P20236+P23574+P23576+P28471+P28473+P30191+P62813+P63079+P63138+Q91ZM7+Q9ES14); conditions: Compound concentration 10.0 uM
[12] = target: B-cell lymphoma 6 protein (Homo sapiens, UniProt P41182); assay: SPR (BCL6), Ontario institute for cancer research
[13] = target: Insulin receptor (Homo sapiens) (UniProt P06213); assay: INSR Invitrogen Lab (UK) kinase screen (BI); conditions: Compound concentration 1.0 uM
[14] = target: Cyclin-dependent kinase 2/cyclin A (Homo sapiens) (UniProt P24941+P20248+P78396); assay: CDK2/CYCLINA Invitrogen Lab (UK) kinase screen (BI); format: protein-complex assay; conditions: Compound concentration 1.0 uM
[15] = target: B-cell CLL/lymphoma 6 member B protein (Homo sapiens, UniProt Q8N143); assay: SPR (BCL6B), Ontario institute for cancer research
[16] = target: Dual specificity protein kinase CLK1 (Homo sapiens) (UniProt P49759); assay: CLK1 Invitrogen Lab (UK) kinase screen (BI); conditions: Compound concentration 1.0 uM
[17] = target: D(2) dopamine receptor (Homo sapiens) (UniProt P14416); assay: D2SH_AGON Eurofins SafetyScreen44 (BI); conditions: filed as agonist, Compound concentration 10.0 uM
[18] = target: 5-hydroxytryptamine receptor 2A (Homo sapiens) (UniProt P28223); assay: 5HT2AH_AGON Eurofins SafetyScreen44 (BI); conditions: filed as agonist, Compound concentration 10.0 uM
[19] = target: 5-hydroxytryptamine receptor 1A (Homo sapiens) (UniProt P08908); conditions: Compound concentration 10.0 uM
[20] = target: Muscarinic acetylcholine receptor M2 (Homo sapiens) (UniProt P08172); assay: M2/H Eurofins SafetyScreen44 (BI); conditions: filed as antagonist, Compound concentration 10.0 uM
[21] = target: 5-hydroxytryptamine receptor 1B (Homo sapiens) (UniProt P28222); conditions: Compound concentration 10.0 uM
[22] = target: Ribosomal protein S6 kinase alpha-4 (Homo sapiens) (UniProt O75676); assay: RPS6KA4 Invitrogen Lab (UK) kinase screen (BI); conditions: Compound concentration 1.0 uM
[23] = target: D(3) dopamine receptor (Homo sapiens) (UniProt P35462); conditions: Compound concentration 10.0 uM
[24] = target: RAF proto-oncogene serine/threonine-protein kinase (Homo sapiens) (UniProt P04049); assay: RAF1 Invitrogen Lab (UK) kinase screen (BI); conditions: Compound concentration 1.0 uM
[25] = target: Sigma intracellular receptor 2 (Homo sapiens) (UniProt Q5BJF2); conditions: Compound concentration 10.0 uM
[26] = target: D(1A) dopamine receptor (Homo sapiens) (UniProt P21728); assay: D1/H Eurofins SafetyScreen44 (BI); conditions: filed as antagonist, Compound concentration 10.0 uM
Rattus norvegicus = species on record: Rattus norvegicus; conditions: Compound concentration 10.0 uM
[27] = target: Cholecystokinin receptor type A (Homo sapiens) (UniProt P32238); assay: CCKA/H Eurofins SafetyScreen44 (BI); conditions: Compound concentration 10.0 uM
[28] = target: Dual specificity mitogen-activated protein kinase kinase 6 (Homo sapiens) (UniProt P52564); assay: MAP2K6 Invitrogen Lab (UK) kinase screen (BI); conditions: Compound concentration 1.0 uM
[29] = target: Mitogen-activated protein kinase 14 (Homo sapiens) (UniProt Q16539); assay: MAPK14 Invitrogen Lab (UK) kinase screen (BI); conditions: Compound concentration 1.0 uM
[30] = target: Alpha-2C adrenergic receptor (Homo sapiens) (UniProt P18825); conditions: Compound concentration 10.0 uM
[31] = target: BDNF/NT-3 growth factors receptor (Homo sapiens) (UniProt Q16620); assay: NTRK2 Invitrogen Lab (UK) kinase screen (BI); conditions: Compound concentration 1.0 uM
[32] = target: Ephrin type-A receptor 2 (Homo sapiens) (UniProt P29317); assay: EPHA2 Invitrogen Lab (UK) kinase screen (BI); conditions: Compound concentration 1.0 uM
[33] = target: cAMP-dependent protein kinase catalytic subunit alpha (Homo sapiens) (UniProt P17612); assay: PRKACA Invitrogen Lab (UK) kinase screen (BI); conditions: Compound concentration 1.0 uM
[34] = target: 5-hydroxytryptamine receptor 1D (Homo sapiens) (UniProt P28221); conditions: Compound concentration 10.0 uM
[35] = target: 5-hydroxytryptamine receptor 3A (Homo sapiens) (UniProt P46098); conditions: Compound concentration 10.0 uM
[36] = target: 3-phosphoinositide-dependent protein kinase 1 (Homo sapiens) (UniProt O15530); assay: PDK1 Invitrogen Lab (UK) kinase screen (BI); conditions: Compound concentration 1.0 uM
[37] = target: Platelet-derived growth factor receptor alpha (Homo sapiens) (UniProt P16234); assay: PDGFRA Invitrogen Lab (UK) kinase screen (BI); conditions: Compound concentration 1.0 uM
[38] = target: Sodium-dependent noradrenaline transporter (Homo sapiens) (UniProt P23975); conditions: Compound concentration 10.0 uM
[39] = target: Androgen receptor (Homo sapiens) (UniProt P10275); assay: ANDROGEN/H Eurofins SafetyScreen44 (BI); conditions: Compound concentration 10.0 uM
[40] = target: SRSF protein kinase 2 (Homo sapiens) (UniProt P78362); assay: SRPK2 Invitrogen Lab (UK) kinase screen (BI); conditions: Compound concentration 1.0 uM
[41] = target: Tyrosine-protein kinase Lck (Homo sapiens) (UniProt P06239); assay: LCK_CE Eurofins SafetyScreen44 (BI); conditions: Compound concentration 10.0 uM
[42] = target: Muscarinic acetylcholine receptor M3 (Homo sapiens, UniProt P20309); assay: M3/H Eurofins SafetyScreen44 (BI); conditions: Compound concentration 10.0 uM

Chain of 5-hydroxytryptamine receptor 2A (Homo sapiens) (P28223 whole entry): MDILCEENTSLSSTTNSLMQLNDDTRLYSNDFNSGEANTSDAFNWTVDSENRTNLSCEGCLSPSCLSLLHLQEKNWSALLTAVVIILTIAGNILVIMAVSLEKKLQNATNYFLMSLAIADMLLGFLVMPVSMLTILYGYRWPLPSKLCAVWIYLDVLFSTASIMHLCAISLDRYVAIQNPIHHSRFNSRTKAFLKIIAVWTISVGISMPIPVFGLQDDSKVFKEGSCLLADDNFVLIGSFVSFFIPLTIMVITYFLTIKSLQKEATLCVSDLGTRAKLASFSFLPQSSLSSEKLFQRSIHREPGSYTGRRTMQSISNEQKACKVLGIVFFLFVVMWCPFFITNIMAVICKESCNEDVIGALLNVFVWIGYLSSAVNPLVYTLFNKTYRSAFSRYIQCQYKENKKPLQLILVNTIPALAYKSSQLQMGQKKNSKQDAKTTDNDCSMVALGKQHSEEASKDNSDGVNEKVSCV
Chain of Sigma non-opioid intracellular receptor 1 (Homo sapiens) (Q99720 whole entry): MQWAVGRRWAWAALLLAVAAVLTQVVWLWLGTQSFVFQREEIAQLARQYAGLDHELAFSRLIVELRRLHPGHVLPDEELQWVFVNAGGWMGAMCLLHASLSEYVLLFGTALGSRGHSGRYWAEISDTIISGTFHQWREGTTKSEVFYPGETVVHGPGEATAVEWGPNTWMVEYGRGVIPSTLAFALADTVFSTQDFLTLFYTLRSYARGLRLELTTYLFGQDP
Chain of Kappa-type opioid receptor (Homo sapiens) (P41145 whole entry): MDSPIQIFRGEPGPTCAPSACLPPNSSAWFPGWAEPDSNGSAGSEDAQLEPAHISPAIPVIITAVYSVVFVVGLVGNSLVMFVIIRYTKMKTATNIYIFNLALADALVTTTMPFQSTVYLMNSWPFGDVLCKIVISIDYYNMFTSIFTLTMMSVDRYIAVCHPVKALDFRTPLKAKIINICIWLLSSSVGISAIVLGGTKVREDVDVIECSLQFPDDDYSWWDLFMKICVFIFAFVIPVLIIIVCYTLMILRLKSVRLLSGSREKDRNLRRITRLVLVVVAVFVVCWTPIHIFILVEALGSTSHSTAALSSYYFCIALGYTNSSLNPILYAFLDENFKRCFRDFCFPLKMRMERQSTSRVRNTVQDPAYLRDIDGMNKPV
Chain of 5-hydroxytryptamine receptor 3A (Homo sapiens) (P46098 whole entry): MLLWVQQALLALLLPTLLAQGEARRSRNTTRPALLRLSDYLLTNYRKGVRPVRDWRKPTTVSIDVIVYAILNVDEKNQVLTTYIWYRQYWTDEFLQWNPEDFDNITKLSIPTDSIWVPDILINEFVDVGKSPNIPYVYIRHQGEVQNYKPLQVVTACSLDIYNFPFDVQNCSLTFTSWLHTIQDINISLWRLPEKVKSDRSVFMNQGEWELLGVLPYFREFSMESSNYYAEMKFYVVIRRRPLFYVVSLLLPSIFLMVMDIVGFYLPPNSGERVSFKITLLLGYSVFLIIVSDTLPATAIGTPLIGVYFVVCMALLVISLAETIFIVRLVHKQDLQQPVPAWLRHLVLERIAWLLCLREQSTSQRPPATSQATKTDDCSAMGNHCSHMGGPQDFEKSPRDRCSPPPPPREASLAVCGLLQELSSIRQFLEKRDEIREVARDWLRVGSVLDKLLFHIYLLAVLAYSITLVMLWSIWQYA
Chain of 5-hydroxytryptamine receptor 1B (Homo sapiens) (P28222 whole entry): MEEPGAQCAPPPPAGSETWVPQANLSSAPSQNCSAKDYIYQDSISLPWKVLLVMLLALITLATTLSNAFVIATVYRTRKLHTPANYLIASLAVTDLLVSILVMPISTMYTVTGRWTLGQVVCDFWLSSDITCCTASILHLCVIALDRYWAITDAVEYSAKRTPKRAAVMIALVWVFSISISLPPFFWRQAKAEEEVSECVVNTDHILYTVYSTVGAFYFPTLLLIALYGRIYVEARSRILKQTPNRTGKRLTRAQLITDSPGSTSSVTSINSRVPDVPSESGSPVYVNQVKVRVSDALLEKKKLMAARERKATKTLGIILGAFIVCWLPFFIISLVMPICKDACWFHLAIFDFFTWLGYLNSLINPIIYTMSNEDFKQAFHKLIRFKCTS
Chain of Sigma intracellular receptor 2 (Homo sapiens) (Q5BJF2 whole entry): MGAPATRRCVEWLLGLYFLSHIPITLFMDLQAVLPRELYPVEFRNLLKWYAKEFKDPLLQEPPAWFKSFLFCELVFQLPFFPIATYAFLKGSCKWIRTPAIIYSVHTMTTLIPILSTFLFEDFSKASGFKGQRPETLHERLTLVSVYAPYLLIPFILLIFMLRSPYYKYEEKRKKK
Chain of 5-hydroxytryptamine receptor 1A (Homo sapiens) (P08908 whole entry): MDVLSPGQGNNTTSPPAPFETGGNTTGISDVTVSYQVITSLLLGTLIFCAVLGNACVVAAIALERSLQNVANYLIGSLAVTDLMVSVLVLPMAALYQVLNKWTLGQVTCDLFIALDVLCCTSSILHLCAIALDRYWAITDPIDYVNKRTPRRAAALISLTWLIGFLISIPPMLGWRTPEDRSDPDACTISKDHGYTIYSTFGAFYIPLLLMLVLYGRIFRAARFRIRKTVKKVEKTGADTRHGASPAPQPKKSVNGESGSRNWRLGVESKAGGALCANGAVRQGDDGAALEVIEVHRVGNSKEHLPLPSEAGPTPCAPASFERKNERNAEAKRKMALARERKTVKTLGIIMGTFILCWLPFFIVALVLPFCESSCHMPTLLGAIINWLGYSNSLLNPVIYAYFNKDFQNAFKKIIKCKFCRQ
Chain of 5-hydroxytryptamine receptor 2B (Homo sapiens) (P41595 whole entry): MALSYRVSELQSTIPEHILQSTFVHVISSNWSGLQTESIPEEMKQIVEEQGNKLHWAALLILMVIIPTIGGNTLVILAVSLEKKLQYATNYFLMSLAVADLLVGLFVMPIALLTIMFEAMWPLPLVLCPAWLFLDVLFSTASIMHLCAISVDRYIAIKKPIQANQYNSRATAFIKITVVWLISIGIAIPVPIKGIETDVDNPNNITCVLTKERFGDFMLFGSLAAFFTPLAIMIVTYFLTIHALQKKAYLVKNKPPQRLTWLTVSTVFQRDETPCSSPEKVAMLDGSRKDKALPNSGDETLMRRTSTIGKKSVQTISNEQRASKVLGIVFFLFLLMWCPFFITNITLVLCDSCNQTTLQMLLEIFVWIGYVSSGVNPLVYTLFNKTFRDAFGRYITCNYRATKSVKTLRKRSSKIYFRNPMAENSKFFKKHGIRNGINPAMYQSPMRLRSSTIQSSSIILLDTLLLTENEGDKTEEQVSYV
Chain of Alpha-2C adrenergic receptor (Homo sapiens) (P18825 whole entry): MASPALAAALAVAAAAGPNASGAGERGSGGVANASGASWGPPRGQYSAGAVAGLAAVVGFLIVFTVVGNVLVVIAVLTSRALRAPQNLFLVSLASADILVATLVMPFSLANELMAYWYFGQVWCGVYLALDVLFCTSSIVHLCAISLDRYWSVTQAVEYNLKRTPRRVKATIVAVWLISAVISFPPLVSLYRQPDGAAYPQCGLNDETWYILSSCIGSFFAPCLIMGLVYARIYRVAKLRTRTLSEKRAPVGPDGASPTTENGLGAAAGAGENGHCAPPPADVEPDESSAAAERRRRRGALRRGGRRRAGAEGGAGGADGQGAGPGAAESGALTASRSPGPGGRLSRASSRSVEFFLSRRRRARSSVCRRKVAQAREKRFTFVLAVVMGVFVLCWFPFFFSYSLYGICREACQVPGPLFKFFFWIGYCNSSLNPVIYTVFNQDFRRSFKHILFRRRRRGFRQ
Chain of D(3) dopamine receptor (Homo sapiens) (P35462 whole entry): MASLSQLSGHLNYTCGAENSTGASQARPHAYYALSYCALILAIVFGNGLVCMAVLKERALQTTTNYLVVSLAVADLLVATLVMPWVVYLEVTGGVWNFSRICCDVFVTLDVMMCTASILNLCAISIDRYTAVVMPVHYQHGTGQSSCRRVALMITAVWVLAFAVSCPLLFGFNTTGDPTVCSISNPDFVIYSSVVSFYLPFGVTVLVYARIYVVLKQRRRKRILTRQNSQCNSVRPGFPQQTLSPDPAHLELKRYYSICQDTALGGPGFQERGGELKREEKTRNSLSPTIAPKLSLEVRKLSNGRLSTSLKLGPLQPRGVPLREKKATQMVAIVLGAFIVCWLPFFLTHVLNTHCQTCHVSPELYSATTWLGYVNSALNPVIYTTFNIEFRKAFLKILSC
Chain of 5-hydroxytryptamine receptor 1D (Homo sapiens) (P28221 whole entry): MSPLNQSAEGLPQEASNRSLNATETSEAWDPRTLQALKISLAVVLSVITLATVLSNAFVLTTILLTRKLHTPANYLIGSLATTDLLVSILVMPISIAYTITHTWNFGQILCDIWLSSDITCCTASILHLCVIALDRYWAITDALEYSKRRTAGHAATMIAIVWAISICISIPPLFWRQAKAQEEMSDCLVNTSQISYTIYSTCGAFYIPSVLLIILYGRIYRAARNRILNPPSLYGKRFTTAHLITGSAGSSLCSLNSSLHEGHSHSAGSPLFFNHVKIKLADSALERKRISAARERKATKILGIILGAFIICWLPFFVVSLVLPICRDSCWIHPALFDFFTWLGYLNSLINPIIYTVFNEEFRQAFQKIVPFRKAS
Chain of Sodium-dependent noradrenaline transporter (Homo sapiens) (P23975 whole entry): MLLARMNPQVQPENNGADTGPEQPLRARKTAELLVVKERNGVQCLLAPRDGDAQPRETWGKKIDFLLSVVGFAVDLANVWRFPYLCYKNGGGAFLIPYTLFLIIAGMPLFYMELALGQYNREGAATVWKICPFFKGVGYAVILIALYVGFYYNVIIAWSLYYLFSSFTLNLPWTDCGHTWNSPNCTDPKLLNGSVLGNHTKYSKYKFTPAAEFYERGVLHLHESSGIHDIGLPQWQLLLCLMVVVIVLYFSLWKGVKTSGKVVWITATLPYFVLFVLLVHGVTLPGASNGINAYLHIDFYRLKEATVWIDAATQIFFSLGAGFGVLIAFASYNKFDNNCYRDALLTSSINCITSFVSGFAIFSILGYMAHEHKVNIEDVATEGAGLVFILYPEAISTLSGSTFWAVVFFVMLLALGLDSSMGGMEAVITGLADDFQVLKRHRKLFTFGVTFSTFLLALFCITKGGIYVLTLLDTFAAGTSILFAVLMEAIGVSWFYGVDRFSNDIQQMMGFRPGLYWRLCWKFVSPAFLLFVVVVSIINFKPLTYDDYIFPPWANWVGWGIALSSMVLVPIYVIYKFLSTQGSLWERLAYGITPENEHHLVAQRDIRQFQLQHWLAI

inhibition [2]: 15.4% | inhibition [4]: 16.8% | residual activity [5]: 98% | inhibition [6]: 7.86% | inhibition [7]: -2.05% | residual activity [8]: 106% | Kd [9]: No binding | residual activity [10]: 103% | inhibition [11]: 39.6% | Kd [12]: 2.57 nM (active) | residual activity [13]: 93% | residual activity [14]: 88% | Kd [15]: 3.68 µM (not active) | residual activity [16]: 88% | inhibition [19]: 22.9% | inhibition [21]: 9.19% | residual activity [22]: 93% | inhibition [23]: 14.6% | residual activity [24]: 79% | inhibition [25]: 38.2% | inhibition (Rattus norvegicus): 49.5% | residual activity [28]: 112% | residual activity [29]: 88% | inhibition [30]: 3.4% | residual activity [31]: 88% | residual activity [32]: 99% | residual activity [33]: 99% | inhibition [34]: 13.2% | inhibition [35]: 28.1% | residual activity [36]: 83% | residual activity [37]: 88% | inhibition [38]: 4.8% | residual activity [40]: 103%
Structure (SMILES): CNC(=O)COc1cc2cc(Nc3nc(N4CCC(C(=O)N(C)C)CC4)ncc3Cl)cc(OC)c2n(C)c1=O
residual activity [1]: 100% | residual activity [3]: 118% | residual activity [17]: 101% | residual activity [18]: 119% | residual activity [20]: 13% | residual activity [26]: 100% | residual activity [27]: 93% | residual activity [39]: 99% | residual activity [41]: 99% | residual activity [42]: 88%
